{
  "source": "patent EP0306649A1",
  "about": "“3,5-Dihydroxycarboxylic acids and their derivatives, processes for their preparation, their use as medicaments, pharmaceutic preparations and intermediate products” (HOECHST AKTIENGESELLSCHAFT, priority 1987, dated 1989)",
  "key": {"Cholesterin-Biosynthese": {"system": "Cholesterin-Biosynthese", "experiment": "Inhibition of cholesterol biosynthesis in cell culture by 14C precursor incorporation into cholesterol", "type": "cell-based", "conditions": "HEP G2-Zellen monolayers in lipoprotein-free medium; 1 h preincubation, then 3 h with 14C-Natriumacetat; potency relative to Mevinolin tested in the same way", "excerpt": "2) Prüfung auf Cholesterin-Biosynthese-Hemmung in Zellkulturen durch ¹⁴-Präkursoreinbau in Cholesterin.\nMonolayers von HEP G2-Zellen in lipoproteinfreiem Nährmedium wurden mit entsprechenden Konzentrationen der Prüfsubstanzen 1 Stunde vorinkubiert; nach Zugabe des ¹⁴C-markierten Präkursors ¹⁴C-Natriumacetat wurde die Inkubation für 3 Stunden fortgesetzt. Danach wurde ein Teil der Zellen alkalisch verseift bei vorheriger Zugabe eines internen Standards von ³H-Cholesterin. Die Lipide der verseiften Zellen wurden mit Chloroform-Methanol extrahiert. Dieses Lipidgemisch wurde nach Zusatz von Träger-Cholesterin präparativ dünnschichtchromatographisch getrennt, die Cholesterin-Bande nach dem Sichtbarmachen mit Jod-Dämpfen isoliert und die aus dem ¹⁴C-Präkursor gebildete Menge ¹⁴C-Cholesterins szintigraphisch bestimmt. In einem aliquoten Teil der Zellen wurde Zellprotein bestimmt, sodaß die in der Zeiteinheit/mg Zellprotein aus ¹⁴C-Präkursor gebildete Menge ¹⁴C-Cholesterins berechnet werden kann. Zum Vergleich für die Hemmwirkung eines zugesetzten Prüfpräparates diente die Lösungsmittelkontrolle, sodaß direkt die Hemmung der Cholesterin-Biosynthese bei einer bestimmten molaren Konzentration des Prüfpräparates im Medium angegeben werden kann. […]"}, "[1]": {"conditions": "human trial; cited from earlier work"}, "[2]": {"conditions": "rat; cited from earlier work"}},
  "note": "Read-outs that look alike come from different tables or passages of the source.",
  "data": [
    {"molecule": "CC(C)C(C=CC(O)CC(O)CC(=O)[O-])=C(c1ccc(F)cc1)c1ccc(F)cc1.[Na+]", "note": "(stereo not shown) [Beispiel 11a, 9,9-Di-(4-fluorphenyl)-3,5-dihydroxy-8-isopropyl-6,8-nonadiensäure Natriumsalz]", "values": [
      {"measurement": "relative Weinstärke zu Mevinolin", "setting": "Cholesterin-Biosynthese", "result": 100, "unit": "%"}
    ]},
    {"molecule": "CC(O)(CC(=O)O)CC(=O)O", "note": "[3-Hydroxy-3-methyl-glutarsäure]", "values": [
      {"measurement": "cholesterinsenkende Wirkung", "setting": "[1]", "result": "signifikante cholesterinsenkende Wirkung"},
      {"measurement": "cholesterinsenkende Wirkung", "setting": "[2]", "result": "signifikante cholesterinsenkende Wirkung"}
    ]},
    {"molecule": "CC(C)C(CCC(O)CC(O)CC(=O)[O-])=C(c1ccc(F)cc1)c1ccc(F)cc1.[Na+]", "note": "(stereo not shown) [Beispiel 11n, 3,5-Dihydroxy-9,9-di-(4-flurophenyl)-8-isopropyl-8-nonensäure-Natriumsalz]", "values": [
      {"measurement": "relative Weinstärke zu Mevinolin", "setting": "Cholesterin-Biosynthese", "result": 30, "unit": "%"}
    ]}
  ]
}
